Results taken from PMC7687371, “Quantitative in Vitro to in Vivo Extrapolation (QIVIVE) for Predicting Reduced Anogenital Distance Produced by Anti-Androgenic Pesticides in a Rodent Model for Male Reproductive Disorders” (Environmental Health Perspectives, 2020).

What was measured:
[1] = Fetal chemical exposure analysis (LC-QTOF) at GD21; format: in vivo, rat; conditions: fetal plasma GD21
Description: Dams were decapitated under CO2 /oxygen anesthesia at GD21 and fetuses collected by cesarean section. Prior to decapitation of the fetuses, their BWs and AGDs were recorded. Blood from the dams was collected in heparinized vacutainer tubes, centrifuged at 125×g for 10 min at 4°C to prepare plasma, and, together with the amniotic fluid, frozen directly. Pooled trunk blood from all female and male fetuses of the same litter (female and male blood separately) was collected into heparin-treated capillary tubes approximately 90 min after dosing and the plasma was prepared and stored at −80°C until analysis for pesticides and selected metabolites by liquid chromatography quadrupole time-of-flight mass spectroscopy (LC-QTOF). Details about the LC-QTOF analyses are provided in “Method S1” in Supplemental Material. Amniotic fluid was collected from fetuses by pipetting, pooled within each litter, snap frozen in liquid nitrogen, and subsequently stored at −80 °C .
Method S1. Chemical analysis of pesticide levels
Acetonitrile, methanol, formic acid and 25% ammonium hydroxide, all of LC-MS grade and ethyl acetate were obtained from Sigma Aldrich, Schneldorf, Germany. Isolute bulk C-18 sorbent was obtained from Biotage, Sweden and was washed with acetonitrile and ethyl acetate and dried prior to use. Water was purified on a Milli Q system, Millipore Corporation, US.
Pesticide standards were purchased from Dr. Ehrenstorfer (Augsburg, Germany), LGC-standards (Teddington, Middlesex, UK) and Sigma Aldrich (St. Louis, MO, USA). Acetonitrile used as solvents for the LC-QTOF was LiChrosolv Hypergrade. An ESI-L low concentration tuning mix from Agilent (Santa Clara, CA, USA) was used for tuning of the TOF. A reference solution was prepared containing Purine and HP0921 from Agilent (Santa Clara, CA, USA).
Stock solutions of the pesticides were prepared at 1 mg/ml in acetonitrile, methanol or toluene.
Standard mixtures containing the test compounds were prepared at a concentration of 10 µg/ml acetonitrile and used for preparation of calibration solutions. Isomers eluting very close to each other were avoided in these mixtures. […]
added 200 µl of ice-cold acetonitrile in Eppendorf tubes. Internal standard was added in the form of 10 µl TPP (5 µg/ml) and the extraction was performed by whirl mixing. The tube was then stored on ice for 5 min and then centrifuged at 10,000 x g for 10 min at 4 °C (Ole Dich Instrument, Denmark). An aliquot of the supernatant was transferred to filter vials (0.45 µm) and analysed by […]
Quality control samples were included in each analytical run. These were prepared using the same procedure as for the samples, though using amniotic fluid from untreated control Wistar rats extracted with acetonitrile containing three different levels of the relevant pesticide standards. The resulting spike levels were 0.04, 0.013 and 0.13 µg/ml. […]
fluid or plasma from Sprague Dawley rats was transferred to an Eppendorf vial and added 150 µl of acetonitrile. 50 mg of isolute C-18 sorbent was added to the tube, which was shaken for 5 min, […]
cooled to 4 °C and centrifuged at 10,000 x g for 10 min at 4 °C (Ole Dich Instrument makers, Denmark). 20 µl of the supernatant was transferred to an HPLC vial and mixed with 80 µl of 5%- 75% acetonitrile (this percentage was analyte dependent) prior to analysis by LC-MS.LC -QTOF […]
Pesticide screening was carried out using a liquid chromatography-electrospray ionization-quadrupole-time of flight-mass spectrometer.
The LC system was connected to a Bruker Daltonics, maXis qTOF mass spectrometer equipped with an electrospray ion source operated in positive ion mode (Bruker Daltonics, Bremen, Germany). The ion source settings were: nebulizer pressure 2 bars, drying gas flow 8 l/min, dry gas temperature 200 °C, capillary voltage 2500 V. The scan range was from 80 to 700 m/z with an acquisition rate of 2 Hz. Sodium formate dissolved in 50% 2-propanol was introduced in the ion […]

[2] = PBK model first-order kinetic parameters fitted to in vivo ADME data; design: species or system rat
[3] = design: method as in U.S. EPA 2012; conditions: EPI Suite, experimental preferred over modeled; ref U.S. EPA 2012; cited from earlier work
androgen receptor (AR) = target: T1, androgen receptor (AR) (Homo sapiens, UniProt P10275); test: AR-EcoScreen androgen receptor transcriptional activation assay (AR antagonism); format: cell-based
T1 construct: host or cells: AR-EcoScreen cells
T1 sequence (P10275 1-920): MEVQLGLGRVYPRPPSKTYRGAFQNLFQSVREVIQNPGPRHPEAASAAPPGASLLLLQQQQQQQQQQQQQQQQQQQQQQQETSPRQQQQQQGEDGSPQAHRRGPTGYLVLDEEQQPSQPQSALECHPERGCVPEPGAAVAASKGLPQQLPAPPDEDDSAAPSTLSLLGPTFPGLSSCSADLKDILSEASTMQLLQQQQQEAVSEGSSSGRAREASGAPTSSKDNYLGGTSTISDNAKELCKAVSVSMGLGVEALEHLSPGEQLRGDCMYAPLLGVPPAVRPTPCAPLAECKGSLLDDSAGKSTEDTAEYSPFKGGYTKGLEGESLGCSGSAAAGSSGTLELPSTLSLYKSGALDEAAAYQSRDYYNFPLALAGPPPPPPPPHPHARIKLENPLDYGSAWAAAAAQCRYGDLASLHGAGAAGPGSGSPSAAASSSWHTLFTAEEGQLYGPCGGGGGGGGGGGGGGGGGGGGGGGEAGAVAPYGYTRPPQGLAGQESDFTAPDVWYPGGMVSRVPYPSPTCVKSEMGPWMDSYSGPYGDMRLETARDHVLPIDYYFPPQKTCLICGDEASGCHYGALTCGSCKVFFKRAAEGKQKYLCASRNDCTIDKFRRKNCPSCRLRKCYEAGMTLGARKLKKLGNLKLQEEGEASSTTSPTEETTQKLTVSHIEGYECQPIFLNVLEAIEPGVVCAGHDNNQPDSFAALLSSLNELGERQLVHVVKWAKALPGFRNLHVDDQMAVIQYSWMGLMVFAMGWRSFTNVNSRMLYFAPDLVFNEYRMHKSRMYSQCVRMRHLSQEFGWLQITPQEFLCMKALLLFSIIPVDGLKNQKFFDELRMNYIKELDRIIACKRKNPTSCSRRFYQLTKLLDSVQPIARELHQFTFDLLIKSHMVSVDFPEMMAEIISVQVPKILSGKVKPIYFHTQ
Description: Experiments were run with three technical replicates and repeated three times. The mean value of technical replicates represents one biological replicate. AR-EcoScreen™ cells (JCRB1328; Japanese Collection of Research Bioresources) were grown in CellBIND® surface cell culture flasks (Corning Inc.) in growth medium consisting of Gibco® Dulbecco’s Modified Eagle’s Medium/F-12 (DMEM/F-12) Nutrient Mixture with L-glutamine and 4-(2-hydroxyethyl)-1-piperazineethanesulfonic acid (HEPES) and without phenol red supplemented with 5% fetal bovine serum (FBS), 1% penicillin-streptomycin, 200μg/mL Zeocin™ selection reagent, and 100μg/mL Hygromycin B (all reagents from Invitrogen, Life Technologies). The cells were incubated at 37°C in a humidified atmosphere of 5% carbon dioxide ( CO2 ) and 95% air. On the day before the experiment, cells were plated in white 96-well plates (Corning Inc.) at a density of 9,000 cells/well in assay medium consisting of Gibco® DMEM/F-12 Nutrient Mixture medium, 1% penicillin-streptomycin, with 5% dextran-coated charcoal-treated FBS (all reagents from Invitrogen, Life Technologies). On the following day, the medium was changed to assay medium containing the known AR agonist R1881 (Perkin Elmer) in 2-fold serial dilutions from 0.008 to 1 nM or the known AR antagonist hydroxyflutamide (CASRN 52806-53-8, Toronto Research Chemicals) in 3-fold serial dilutions from […] together with 0.1 nM R1881. […] The DMSO vehicle concentrations were kept constant in all wells (0.1%). Following approximately 20 h of exposure to test compounds firefly luminescence was measured in a luminometer (LUMIstar® Galaxy, BMG LABTECH) using Dual-Glo® Luciferase Reagent from the Dual-Glo® Luciferase Assay System from Promega. Cell viability was measured by Renilla luminescence using Dual-Glo® Stop & Glo® Reagent from the Dual-Glo® Luciferase Assay System.

SMILES: CONC(=O)Nc1ccc(Cl)c(Cl)c1 [DPMU, 1-(3,4-Dichlorophenyl)-3-methoxyurea]
- Measured concentration in male fetuses ([1]; dams dosed linuron 25 mg/kg BW per day): 5.0 µM
- Measured concentration in male fetuses ([1]; dams dosed linuron 50 mg/kg BW per day): 9.6 µM
- Measured concentration in male fetuses ([1]; dams dosed linuron 75 mg/kg BW per day): 21.4 µM
- Urine excretion rate from kidney (L/h) KUrine ([2]; PBK model parameter): 0.05 L/h
- Metabolism rate in liver, Metabolite ([2]; conversion of parent compound into active metabolite): 0.22 L/h
- Metabolism rate in liver, Total (L/h) KMetab ([2]; metabolic clearance, PBK model parameter): 0.02 L/h
- log Kow [3]: 2.70
- IC50 (androgen receptor (AR)): 4 µM
